Experiments:
Assay type in all cases: biochemical
[1] = molecular target: EPHB4 (Homo sapiens, UniProt P54760); assay: Caliper kinase profiling: EPHB4; settings: EPHB4, 1 μM; read-out: Average % Inh @ 1 μM
[2] = molecular target: PhKg2 (Homo sapiens, UniProt P15735); assay: Caliper kinase profiling: PhKg2; settings: PhKg2, 1 μM; read-out: Average % Inh @ 1 μM
[3] = molecular target: LYNB (Homo sapiens, UniProt P07948); assay: Caliper kinase profiling: LYNB
[4] = molecular target: T1, MST1 (Homo sapiens, UniProt Q13043); assay: Caliper kinase profiling: MST1
T1 sequence (Q13043 1-487): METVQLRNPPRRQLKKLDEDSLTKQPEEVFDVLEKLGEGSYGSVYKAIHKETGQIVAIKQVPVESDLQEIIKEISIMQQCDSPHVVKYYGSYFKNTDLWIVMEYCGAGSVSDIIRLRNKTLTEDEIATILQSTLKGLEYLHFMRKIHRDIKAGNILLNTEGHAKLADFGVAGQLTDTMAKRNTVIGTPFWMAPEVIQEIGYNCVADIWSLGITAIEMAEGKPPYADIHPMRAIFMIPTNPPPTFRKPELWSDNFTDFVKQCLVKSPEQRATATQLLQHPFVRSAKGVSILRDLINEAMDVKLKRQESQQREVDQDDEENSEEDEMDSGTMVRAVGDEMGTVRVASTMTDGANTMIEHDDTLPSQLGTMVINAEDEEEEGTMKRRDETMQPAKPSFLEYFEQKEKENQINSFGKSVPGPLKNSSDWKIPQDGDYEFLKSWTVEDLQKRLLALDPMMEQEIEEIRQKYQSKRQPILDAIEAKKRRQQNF

[5] = molecular target: FRK (Homo sapiens, UniProt P42685); assay: Caliper kinase profiling: FRK; settings: read-out: Average % Inh @ 1 μM
[6] = molecular target: EPHA2 (Homo sapiens, UniProt P29317); assay: Caliper kinase profiling: EPHA2; settings: EPHA2, 1 μM; read-out: Average % Inh @ 1 μM
[7] = molecular target: T2, AMPK-α2/β1/γ1 (Homo sapiens, UniProt P54646); assay: Caliper kinase profiling: AMPK-α2/β1/γ1
T2 construct: purchased Caliper LifeSciences (ProfilerPro Kinase Selectivity Assay Kits)

[8] = molecular target: RET(Y791F) (Homo sapiens, UniProt P07949, Y791F); assay: Caliper kinase profiling: RET(Y791F)
[9] = molecular target: BTK (Homo sapiens, UniProt Q06187); assay: Caliper kinase profiling: BTK; settings: read-out: Average % Inh @ 1 μM
[10] = molecular target: SRC (Homo sapiens, UniProt P12931); assay: Caliper kinase profiling: SRC
[11] = molecular target: T3, EPHA1 (Homo sapiens, UniProt P21709); assay: Caliper kinase profiling: EPHA1
T3 sequence (P21709 26-976): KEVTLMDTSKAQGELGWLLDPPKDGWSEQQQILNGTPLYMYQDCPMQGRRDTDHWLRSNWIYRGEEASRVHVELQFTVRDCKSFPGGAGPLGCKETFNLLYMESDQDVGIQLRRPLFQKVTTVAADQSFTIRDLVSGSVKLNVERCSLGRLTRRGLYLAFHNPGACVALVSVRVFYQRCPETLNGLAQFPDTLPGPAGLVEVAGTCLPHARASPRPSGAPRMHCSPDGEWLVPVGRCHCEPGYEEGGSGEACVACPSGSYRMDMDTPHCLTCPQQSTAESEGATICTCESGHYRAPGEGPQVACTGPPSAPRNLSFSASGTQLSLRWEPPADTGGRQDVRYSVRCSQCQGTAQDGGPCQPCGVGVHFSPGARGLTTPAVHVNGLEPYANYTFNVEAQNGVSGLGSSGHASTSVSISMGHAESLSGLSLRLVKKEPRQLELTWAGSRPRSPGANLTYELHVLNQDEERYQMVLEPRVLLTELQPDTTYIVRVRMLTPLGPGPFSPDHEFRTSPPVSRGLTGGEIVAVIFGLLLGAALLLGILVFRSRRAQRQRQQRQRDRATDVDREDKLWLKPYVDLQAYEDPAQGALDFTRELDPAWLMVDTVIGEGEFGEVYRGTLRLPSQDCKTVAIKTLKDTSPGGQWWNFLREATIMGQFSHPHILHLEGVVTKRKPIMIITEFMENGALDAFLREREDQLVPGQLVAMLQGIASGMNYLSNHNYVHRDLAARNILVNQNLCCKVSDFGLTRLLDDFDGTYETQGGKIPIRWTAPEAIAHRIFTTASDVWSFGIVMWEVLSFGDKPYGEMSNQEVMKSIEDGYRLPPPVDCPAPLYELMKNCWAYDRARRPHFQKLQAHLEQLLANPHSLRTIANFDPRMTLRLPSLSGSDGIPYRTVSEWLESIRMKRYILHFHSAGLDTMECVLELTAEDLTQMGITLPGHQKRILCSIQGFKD

[12] = molecular target: MST1R (Homo sapiens, UniProt Q04912); assay: Caliper kinase profiling: MST1R; settings: read-out: Average % Inh @ 1 μM
[13] = molecular target: FES (Homo sapiens, UniProt P07332); assay: Caliper kinase profiling: FES; settings: read-out: Average % Inh @ 1 μM
[14] = molecular target: EPHA4 (Homo sapiens, UniProt P54764); assay: Caliper kinase profiling: EPHA4; settings: EPHA4, 1 μM; read-out: Average % Inh @ 1 μM
[15] = molecular target: FGFR3 (Homo sapiens, UniProt P22607); assay: Caliper kinase profiling: FGFR3; settings: FGFR3, 1 μM; read-out: Average % Inh @ 1 μM
[16] = 10 nM, read-out: Average % Inh @ 10 nM
[17] = 100 nM, read-out: Average % Inh @ 100 nM
[18] = 1 μM, read-out: Average % Inh @ 1 μM

RET(Y791F), sequence (P07949 29-1114 Y791F): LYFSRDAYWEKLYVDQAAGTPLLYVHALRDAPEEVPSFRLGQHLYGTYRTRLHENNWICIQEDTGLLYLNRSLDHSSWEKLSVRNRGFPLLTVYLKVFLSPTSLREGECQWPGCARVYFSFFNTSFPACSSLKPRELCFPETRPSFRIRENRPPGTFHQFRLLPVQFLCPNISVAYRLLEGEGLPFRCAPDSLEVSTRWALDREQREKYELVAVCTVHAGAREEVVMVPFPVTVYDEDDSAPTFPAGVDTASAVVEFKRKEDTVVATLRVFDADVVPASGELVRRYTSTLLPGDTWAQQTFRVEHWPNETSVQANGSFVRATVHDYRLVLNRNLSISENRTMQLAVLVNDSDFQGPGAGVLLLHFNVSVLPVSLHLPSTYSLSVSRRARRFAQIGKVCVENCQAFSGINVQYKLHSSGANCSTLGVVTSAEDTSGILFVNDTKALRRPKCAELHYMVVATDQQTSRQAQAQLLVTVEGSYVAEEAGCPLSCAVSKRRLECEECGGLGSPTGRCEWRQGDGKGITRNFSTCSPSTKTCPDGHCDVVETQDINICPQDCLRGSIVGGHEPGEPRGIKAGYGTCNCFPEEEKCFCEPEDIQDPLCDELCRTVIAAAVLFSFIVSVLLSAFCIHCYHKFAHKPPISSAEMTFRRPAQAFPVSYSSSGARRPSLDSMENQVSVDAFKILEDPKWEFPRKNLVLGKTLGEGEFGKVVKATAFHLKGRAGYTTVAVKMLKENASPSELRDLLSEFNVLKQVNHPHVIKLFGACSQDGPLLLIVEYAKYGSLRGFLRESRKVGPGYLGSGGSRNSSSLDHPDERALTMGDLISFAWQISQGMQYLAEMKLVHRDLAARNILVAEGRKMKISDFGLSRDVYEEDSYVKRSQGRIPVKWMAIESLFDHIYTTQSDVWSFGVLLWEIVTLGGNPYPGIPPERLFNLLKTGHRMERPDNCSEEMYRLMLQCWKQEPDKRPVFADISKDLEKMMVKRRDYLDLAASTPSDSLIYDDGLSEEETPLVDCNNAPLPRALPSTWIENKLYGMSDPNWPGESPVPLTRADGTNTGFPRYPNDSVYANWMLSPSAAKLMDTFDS
SRC, sequence (P12931 whole entry): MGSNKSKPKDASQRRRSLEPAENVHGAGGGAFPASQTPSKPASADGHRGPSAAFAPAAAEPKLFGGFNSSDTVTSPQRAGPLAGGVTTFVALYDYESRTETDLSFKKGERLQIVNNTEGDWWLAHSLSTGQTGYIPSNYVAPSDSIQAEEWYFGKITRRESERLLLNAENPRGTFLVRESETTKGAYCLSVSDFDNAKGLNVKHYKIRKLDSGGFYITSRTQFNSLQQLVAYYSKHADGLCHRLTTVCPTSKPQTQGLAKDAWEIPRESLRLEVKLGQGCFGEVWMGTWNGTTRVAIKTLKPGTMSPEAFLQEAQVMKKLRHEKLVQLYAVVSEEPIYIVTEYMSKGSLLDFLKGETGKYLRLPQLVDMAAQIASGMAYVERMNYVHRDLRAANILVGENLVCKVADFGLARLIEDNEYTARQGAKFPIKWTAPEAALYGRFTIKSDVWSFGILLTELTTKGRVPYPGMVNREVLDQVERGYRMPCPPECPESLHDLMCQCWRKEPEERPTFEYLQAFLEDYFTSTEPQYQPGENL
LYNB, sequence (P07948 1-491 isoform P07948-2): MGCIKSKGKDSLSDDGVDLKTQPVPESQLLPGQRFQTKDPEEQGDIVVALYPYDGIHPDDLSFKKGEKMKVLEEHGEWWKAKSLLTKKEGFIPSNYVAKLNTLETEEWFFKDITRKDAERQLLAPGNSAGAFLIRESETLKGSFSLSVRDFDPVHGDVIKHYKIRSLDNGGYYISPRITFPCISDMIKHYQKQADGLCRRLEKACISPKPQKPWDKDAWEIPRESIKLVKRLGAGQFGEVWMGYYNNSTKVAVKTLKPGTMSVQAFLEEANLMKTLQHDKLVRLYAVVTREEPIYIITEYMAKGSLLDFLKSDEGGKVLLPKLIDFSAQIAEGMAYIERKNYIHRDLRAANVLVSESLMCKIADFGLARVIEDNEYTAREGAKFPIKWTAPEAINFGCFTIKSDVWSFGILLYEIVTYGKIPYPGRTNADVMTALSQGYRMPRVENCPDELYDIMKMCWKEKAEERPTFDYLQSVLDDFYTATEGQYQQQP
T2 sequence (P54646 whole entry): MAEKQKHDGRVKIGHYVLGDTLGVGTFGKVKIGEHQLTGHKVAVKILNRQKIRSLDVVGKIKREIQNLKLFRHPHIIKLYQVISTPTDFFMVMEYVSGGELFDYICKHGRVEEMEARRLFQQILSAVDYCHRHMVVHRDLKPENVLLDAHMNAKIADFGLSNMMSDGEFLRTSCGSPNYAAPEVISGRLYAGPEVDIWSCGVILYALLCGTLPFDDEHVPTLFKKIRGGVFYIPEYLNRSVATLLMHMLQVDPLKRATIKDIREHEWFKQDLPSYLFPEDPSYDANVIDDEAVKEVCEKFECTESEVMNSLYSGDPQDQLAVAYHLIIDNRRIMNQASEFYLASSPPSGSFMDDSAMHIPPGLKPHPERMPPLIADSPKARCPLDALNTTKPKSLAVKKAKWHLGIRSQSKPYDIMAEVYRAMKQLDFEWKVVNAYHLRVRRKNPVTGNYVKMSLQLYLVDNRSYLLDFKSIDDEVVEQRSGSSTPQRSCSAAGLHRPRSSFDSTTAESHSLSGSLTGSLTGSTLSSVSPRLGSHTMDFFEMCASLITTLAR
T2 sequence (Q9Y478 whole entry partner): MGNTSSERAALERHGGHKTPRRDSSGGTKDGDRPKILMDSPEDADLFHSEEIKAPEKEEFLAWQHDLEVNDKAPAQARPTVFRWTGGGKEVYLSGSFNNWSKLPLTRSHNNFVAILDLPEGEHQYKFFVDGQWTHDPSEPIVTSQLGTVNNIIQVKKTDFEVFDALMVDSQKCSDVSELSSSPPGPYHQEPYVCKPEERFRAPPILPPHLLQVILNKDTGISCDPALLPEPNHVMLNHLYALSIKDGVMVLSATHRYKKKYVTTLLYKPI
T2 sequence (P54619 whole entry partner): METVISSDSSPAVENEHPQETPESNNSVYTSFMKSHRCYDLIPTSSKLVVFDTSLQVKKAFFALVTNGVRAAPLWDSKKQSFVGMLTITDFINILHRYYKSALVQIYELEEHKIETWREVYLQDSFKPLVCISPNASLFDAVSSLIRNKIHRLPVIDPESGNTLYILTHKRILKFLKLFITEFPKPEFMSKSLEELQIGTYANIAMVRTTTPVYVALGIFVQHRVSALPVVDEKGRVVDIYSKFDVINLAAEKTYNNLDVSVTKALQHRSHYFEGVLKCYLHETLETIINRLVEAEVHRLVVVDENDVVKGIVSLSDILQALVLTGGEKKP
EPHA4, sequence (P54764 20-986): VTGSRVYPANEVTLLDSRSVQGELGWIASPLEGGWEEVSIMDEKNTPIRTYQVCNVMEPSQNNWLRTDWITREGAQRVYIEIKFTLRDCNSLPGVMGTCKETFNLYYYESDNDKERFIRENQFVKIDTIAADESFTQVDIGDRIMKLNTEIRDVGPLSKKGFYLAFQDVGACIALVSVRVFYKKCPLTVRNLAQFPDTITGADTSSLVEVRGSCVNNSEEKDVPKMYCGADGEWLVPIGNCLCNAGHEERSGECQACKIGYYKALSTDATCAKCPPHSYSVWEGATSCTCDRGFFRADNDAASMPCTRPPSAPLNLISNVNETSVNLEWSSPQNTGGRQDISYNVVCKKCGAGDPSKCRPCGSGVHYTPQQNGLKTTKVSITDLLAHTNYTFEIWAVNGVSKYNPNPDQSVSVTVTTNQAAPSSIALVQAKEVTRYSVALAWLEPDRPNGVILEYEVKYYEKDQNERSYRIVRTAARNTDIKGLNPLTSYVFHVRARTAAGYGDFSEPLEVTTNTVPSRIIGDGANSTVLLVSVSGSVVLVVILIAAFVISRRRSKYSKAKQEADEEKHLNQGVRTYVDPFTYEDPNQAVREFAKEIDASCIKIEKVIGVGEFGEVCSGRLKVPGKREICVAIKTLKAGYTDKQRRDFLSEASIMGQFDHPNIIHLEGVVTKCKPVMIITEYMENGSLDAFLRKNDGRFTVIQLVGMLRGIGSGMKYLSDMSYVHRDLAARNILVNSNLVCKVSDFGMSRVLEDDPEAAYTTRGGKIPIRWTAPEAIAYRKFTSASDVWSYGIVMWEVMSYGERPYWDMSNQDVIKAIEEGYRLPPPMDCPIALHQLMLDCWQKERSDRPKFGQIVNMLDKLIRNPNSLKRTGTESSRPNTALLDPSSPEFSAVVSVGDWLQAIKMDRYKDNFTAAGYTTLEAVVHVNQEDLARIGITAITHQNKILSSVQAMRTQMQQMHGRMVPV
FRK, sequence (P42685 whole entry): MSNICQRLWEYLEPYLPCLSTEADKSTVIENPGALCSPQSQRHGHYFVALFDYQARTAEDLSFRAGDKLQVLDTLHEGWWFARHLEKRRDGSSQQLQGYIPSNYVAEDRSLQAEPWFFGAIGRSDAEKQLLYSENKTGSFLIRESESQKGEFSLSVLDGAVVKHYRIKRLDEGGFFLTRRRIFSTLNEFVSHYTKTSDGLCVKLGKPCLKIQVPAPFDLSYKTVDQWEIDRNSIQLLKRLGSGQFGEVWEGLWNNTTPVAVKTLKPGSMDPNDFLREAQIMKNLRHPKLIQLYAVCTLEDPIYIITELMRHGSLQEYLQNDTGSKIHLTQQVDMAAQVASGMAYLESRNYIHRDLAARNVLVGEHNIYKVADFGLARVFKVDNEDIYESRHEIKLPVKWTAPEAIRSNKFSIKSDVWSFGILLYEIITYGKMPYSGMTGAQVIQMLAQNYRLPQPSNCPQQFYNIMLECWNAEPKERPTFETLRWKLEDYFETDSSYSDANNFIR

## O=C(Nc1ccc(F)nc1)C1CCCN1c1nc2c(c(Nc3cc(C4CC4)[nH]n3)n1)CCC2 (single isomer, unassigned) [Compound 2b, 1-(4-(5-cyclopropyl-1H-pyrazol-3-ylamino)-6,7-dihydro-5H-cyclopenta[d]pyrimidin-2-yl)-N-(6-fluoropyridin-3-yl)pyrrolidine-2-carboxamide]
[1]
  inhibition at 1 µM: 40 to 59%
[2]
  inhibition at 1 µM: 40 to 59%
[3]; [16]
  inhibition at 0.01 µM: < 39%
[3]; [17]
  inhibition at 0.1 µM: 40 to 59%
[3]; [18]
  inhibition at 1 µM: > 60%
[4]; MST1, 10 nM, read-out: Average % Inh @ 10 nM
  inhibition at 0.01 µM: < 39%
[4]; MST1, 100 nM, read-out: Average % Inh @ 100 nM
  inhibition at 0.1 µM: 40 to 59%
[4]; MST1, 1 μM, read-out: Average % Inh @ 1 μM
  inhibition at 1 µM: > 60%
[5]
  inhibition at 1 µM: > 60%
[6]
  inhibition at 1 µM: > 60%
[7]; AMPK-α2/β1/γ1, 10 nM, read-out: Average % Inh @ 10 nM
  inhibition at 0.01 µM: < 39%
[7]; AMPK-α2/β1/γ1, 100 nM, read-out: Average % Inh @ 100 nM
  inhibition at 0.1 µM: 40 to 59%
[7]; AMPK-α2/β1/γ1, 1 μM, read-out: Average % Inh @ 1 μM
  inhibition at 1 µM: > 60%
[8]; [16]
  inhibition at 0.01 µM: < 39%
[8]; [17]
  inhibition at 0.1 µM: 40 to 59%
[8]; [18]
  inhibition at 1 µM: > 60%
[9]
  inhibition at 1 µM: 40 to 59%
[10]; [16]
  inhibition at 0.01 µM: < 39%
[10]; [17]
  inhibition at 0.1 µM: > 60%
[10]; [18]
  inhibition at 1 µM: > 60%
[11]; EPHA1, 10 nM, read-out: Average % Inh @ 10 nM
  inhibition at 0.01 µM: < 39%
[11]; EPHA1, 100 nM, read-out: Average % Inh @ 100 nM
  inhibition at 0.1 µM: 40 to 59%
[11]; EPHA1, 1 μM, read-out: Average % Inh @ 1 μM
  inhibition at 1 µM: > 60%
[12]
  inhibition at 1 µM: > 60%
[13]
  inhibition at 1 µM: 40 to 59%
[14]
  inhibition at 1 µM: 40 to 59%
[15]
  inhibition at 1 µM: > 60%

— patent US9422267B2, “Fused pyrimidine compounds and use thereof” (Medivation Technologies, Inc., priority 2012, dated 2016)
